In patent US7579006B2, “Method of treating immune pathologies with low dose estrogen” (Oregon Health and Science University, priority 2000, dated 2009):

Legend:
Lymph node CD3+ T cells = assay: FACS of chemokine receptors on lymph node CD3+ T cells; type: in vivo, mice; conditions: 0.36 mg pellet
Method: Flow cytometry. Lymph node cells from sham and 17β-estradiol treated animals with EAE were washed with PBS/2% FCS/0.2% NaN3 and first incubated on ice for 30 min with Fcγ III/II receptor blocking monoclonal antibody (PharMingen), then stained with PE-conjugated anti-CD3 (PharMingen). After 20 min of incubation with anti-CD3, the cells were fixed and permablized using Cytofix/Cytoperm (PharMingen). Subsequently, cells were incubated with anti-CCR1, anti-CCR2, anti-CCR3, anti-CCR4 and anti-CCR5 goat anti-mouse polyclonal antibodies (Santa Cruz Biotechnology Inc.; USA) for 30 min on ice. After washing, cells were stained with FITC-conjugated anti-goat monoclonal antibodies (Sigma) for an additional 30 min on ice. Cells were analyzed using a FACS-Scan (Becton Dickinson). Propidium iodide and forward/side scatter gating were used to exclude dead cells.

[1] = test system: Vβ8.1/8.2 TCR+ spleen cells; assay: Intracellular cytokine staining of MOG 35-55 stimulated spleen cells; type: in vivo, mice
Method: Intracellular staining for cytokines. Single cell suspensions from spleen were prepared from immunized mice and cultured at 10×10^6 cells/ml in stimulation media containing 50 μg/ml of MOG 35-55. The cells were stimulated for 24 hrs, the last 5 hrs in the presence of Brefeldin A. The cells were then stained with anti-Vβ8.1/8.2 TCR FITC for 30 min at 4° C. prior to fixation and permeabilization with cytofix/cytoperm solution (Pharmingen, Inc.). The cells were then stained with anti-cytokine antibodies labeled with phycoerythrin (anti-mouse IFN-γ, TNF-α, IL-4, IL-10, and IL-12 from Pharmingen Inc.) for 30 min at 4° C. The cells were washed twice in perm/wash buffer (Pharmingen, Inc.) and once in FACS staining buffer (PBS, 1% BSA, 0.05% NaN3) prior to two-color FACS analysis on a FACScan instrument (Beckton-Dickenson, Inc., Sunnyvale, Calif.) using Cell Quest software (Beckton-Dickenson, Inc.). For each experiment the cells were stained with isotype control antibodies to establish background staining and to set the quadrants prior to calculating the percent positive cells.
In order to determine whether estrogen treatment promotes a shift towards Th2 immunity, the frequency of both pro- and anti-inflammatory cytokine producing cells in untreated and E2 treated mice was assessed, using the intracellular cytokine staining technique. Spleen cells were prepared from untreated and E2 treated mice at the peak of EAE (day 12-16 post-immunization) and stimulated with MOG 35-55 for 24 hr, the last […] in the presence of Brefeldin A. The cells were stained with FITC labeled anti-Vβ8.1/8.2 TCR antibodies prior to fixation and permeabilization, and then were stained with the indicated phycoerythrin labeled anti-cytokine antibodies. Vβ8.1/8.2 TCR bearing T cells were focused on because they are thought to comprise a major population of the MOG-35-55 specific T cell responses in H-2b mice.

splenic T cells = assay: Splenic T cell proliferation and cytokine responses of treated Tg mice with EAE; type: in vivo; conditions: 0.36 mg pellet, average
Method: Proliferation assay. Spleens (SPL) were removed surgically, and single cell suspensions were prepared. Proliferative responses of T cells were determined in 96-well microtiter plates by incubating 4×10^5 spleen cells plus antigen at an optimal concentration of 20 μg/well. Cultures were incubated for 72 hr at 37° C. and 7% CO2, the last 18 hr in the presence of 0.5 μCi ^3H-thymidine. Cells were harvested onto glass fiber filters, and thymidine uptake was determined by liquid scintillation. Mean cpm±SEM were calculated from triplicate wells. The stimulation index (SI) was obtained by dividing cpm from antigen-stimulated wells by cpm from wells with no antigen. SI in cultures stimulated with GST alone was subtracted from the SI induced with GST-BV8S2 protein.
Proliferation assay. Proliferation responses of splenic T cells were determined essentially as described in Example II, except that antigen was used at an optimal concentration of 50 μg/ml.

spinal cord mRNA = assay: RNAse protection assay of spinal cords of wildtype and cytokine knockout mice with EAE; type: in vivo
Method: RNAse protection assay. Chemokine, chemokine receptor and cytokine mRNAs were detected by RPA essentially as described in Example III, except that analysis was performed on 20 μg total RNA.
Estrogen treatment reduces chemokine and chemokine receptor mRNA expression in the CNS. The egress of inflammatory cells into the CNS is a critical first step in the development of EAE. Chemokines are low molecular weight chemotactic molecules that are thought to play an important role in the migration and retention of immunocompetent cells in the CNS. The influence of E2 treatment on chemokine and chemokine receptor mRNA in the spinal cords of WT and cytokine deficient mice was measured using the RNAse protection assay (RPA). Total RNA was purified from spinal cords collected from mice at the peak of EAE (day 12-16 post-immunization) and chemokine/chemokine receptor specific mRNA was detected using radiolabeled riboprobes. mRNAs coding for many of the chemokine and receptor family members were detectable in the spinal cords of WT C57BL/6 mice with EAE (FIG. 18). RANTES and IP-10 were expressed at the highest levels, followed by MIP-1α, MIP-2 and MCP-1. The levels of TCA-3 mRNA were below the limits of detection for this assay. […]
The expression of cytokine mRNA in the spinal cords of mice at the peak of EAE (day 12-16 post-immunization) was measured by RPA analysis. […]

`C[C@]12CC[C@@H]3c4ccc(O)cc4CC[C@H]3[C@@H]1CC[C@@H]2O` [17β-estradiol] was tested, and the “CCR2 staining of lymph node CD3+ T cells” value (Lymph node CD3+ T cells) was “No difference”, the “percentage of CCR5 positive lymph node CD3+ T cells” value (Lymph node CD3+ T cells; sham 35+4, p=0.03, in %) was 27+2 and the “percentage of CCR1 positive lymph node CD3+ T cells” value (Lymph node CD3+ T cells; sham 91+6%, p=0.02) was 77+2%. The “frequency of TNF-α producing Vβ8.1/8.2 TCR+ cells” value ([1]; C57BL/6 mice, p=0.004) was “significantly diminished”, the “frequency of TNF-α producing Vβ8.1/8.2 TCR+ cells” value ([1]; IFN-γ knockout mice) was “no further reduction” and the “frequency of TNF-α producing Vβ8.1/8.2 TCR+ cells” value ([1]; IL-4 knockout mice, p=0.06) was “significantly diminished”. For the same compound, the “frequency of TNF-α producing Vβ8.1/8.2 TCR+ cells” value ([1]; IL-10 knockout mice, p=0.001) was “significantly diminished”, the “frequency of IFN-γ producing cells” value ([1]; trend, p>0.05) was “lower frequency” and the “inhibition of proliferation of MBP-Ac1-11 specific T cells” value (splenic T cells) was “about 47%”. For the same compound, the “levels of LT-β, TNF-α and IFN-γ mRNA in spinal cords” value (spinal cord mRNA; C57BL/6 and cytokine knockout mice, except LT-β in IFN-γ deficient mice) was “significantly reduced” and the “expression of all chemokine and chemokine receptor mRNA in spinal cord” value (spinal cord mRNA; WT and cytokine deficient mice, 2.5 mg pellet) was “significantly diminished or absent”.
